Activity calls are given as the source filed them.
Key:
[1] = target: T1, Probable nicotinate-nucleotide adenylyltransferase (Staphylococcus aureus (strain N315), UniProt P65502); format: functional, Staphylococcus aureus subsp. aureus N315;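 for IC50 Mean: confirmatory dose-response retesting of NadD inhibitor hits first found in an ultra-high-throughput screen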
[2] = target: Glucose-6-phosphate 1-dehydrogenase (Homo sapiens, UniProt P11413); assay: human G6PD enzyme inhibitors, dose response, selectivity assay for P. falciparum G6PD inhibitor project, biochemical, fluorescence (AID 504792); format: functional
[3] = target: T1, Probable nicotinate-nucleotide adenylyltransferase; format: functional, Staphylococcus aureus subsp. aureus N315; conditions: read-out: IC50_Mean
[4] = target: Genome polyprotein (dengue virus type 2, UniProt P29990); assay: Dengue-2 NS5 methyltransferase inhibitors, primary screen, biochemical, confirmation dose response (AID 588689); format: functional
[5] = target: Mu-type opioid receptor (Homo sapiens, UniProt P35372); format: functional, cell-based;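 note: U2OS cells with beta-arrestin recruitment to OPRM1 by beta-gal complementation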
[6] = target: 5-hydroxytryptamine receptor 2A (Mus musculus, UniProt P35363); format: functional, cell-based;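 note: CHO-K1 cells with tagged receptor and beta-arrestin; agonist potency measured as compound-induced activation of the receptor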
[7] = target: Beta-galactosidase (Escherichia coli, UniProt Q8VNN2); assay: Dose response counterscreen for EBI2 assay utilizing the enzyme, b-galactosidase.; format: functional
[8] = target: T2, Rac GTPase-activating protein 1 (Homo sapiens, UniProt Q9H0H5); assay: MgcRacGAP GTPase-activating activity inhibitors, confirmation, biochemical, ADP Hunter fluorescence, primary and confirmatory (AID 624330); format: functional
T2 sequence (Q9H0H5 whole entry): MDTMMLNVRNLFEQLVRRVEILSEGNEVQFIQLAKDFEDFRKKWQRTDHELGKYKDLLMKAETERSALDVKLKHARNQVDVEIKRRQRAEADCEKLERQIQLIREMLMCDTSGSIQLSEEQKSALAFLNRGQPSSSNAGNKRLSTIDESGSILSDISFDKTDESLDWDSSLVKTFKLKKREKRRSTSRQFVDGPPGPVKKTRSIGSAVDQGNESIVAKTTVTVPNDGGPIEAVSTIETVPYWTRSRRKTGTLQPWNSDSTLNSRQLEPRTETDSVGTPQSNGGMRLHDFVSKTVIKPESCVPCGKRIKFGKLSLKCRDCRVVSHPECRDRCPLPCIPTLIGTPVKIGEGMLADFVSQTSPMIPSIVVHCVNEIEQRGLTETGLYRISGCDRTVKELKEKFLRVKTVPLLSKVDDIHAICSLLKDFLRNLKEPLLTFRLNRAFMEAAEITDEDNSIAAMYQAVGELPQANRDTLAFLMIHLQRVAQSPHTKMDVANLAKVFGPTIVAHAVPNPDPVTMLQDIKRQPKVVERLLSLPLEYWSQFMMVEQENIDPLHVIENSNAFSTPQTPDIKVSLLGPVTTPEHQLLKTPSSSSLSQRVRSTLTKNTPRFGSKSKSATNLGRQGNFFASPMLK

[9] = target: Melanocortin receptor 4 (Homo sapiens, UniProt P32245); assay: MC4R antagonist potency on cAMP, dose response, cell-based, TR-FRET, biased antagonists (AID 602298); format: functional;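 note: antagonist potency against agonist-stimulated cAMP production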
[10] = nonselective inhibitors of cellular cAMP signaling, dose response, counter-screen for MC4R biased antagonist project, cell-based, TR-FRET cAMP detection (AID 602305); format: functional;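 note: U2OS cells stimulated with forskolin near its EC80 as the cAMP inducer; potency is for inhibition of forskolin-stimulated cAMP signaling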
[11] = target: Albumin (Bos taurus, UniProt P02769); assay: Counterscreen for inhibitors of T-cell receptor (TCR)-CD3 interaction: Fluorescence-based biochemical high throughput dose response assay to identify inhibitors of T-cell receptor (TCR)-CD3 interaction using a TAMRA-labeled BSA probe.; format: functional
[12] = target: Major prion protein (Homo sapiens, UniProt P04156); format: functional, cell-based
[13] = cells
[14] = C. albicans growth with fluconazole, confirmation, fluorescence, retest (AID 2467); format: functional, cell-based
[15] = system: Vero; assay: cells; format: functional; conditions: Chlorocebus sabaeus
[16] = NIH-3T3 fibroblast cytotoxicity, dose response, cytotoxicity control, cell-based, fluorescence, Alamar Blue, secondary assay (AID 2327); format: functional;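 note: NIH-3T3 mouse fibroblasts cultured with fluconazole at 8 µg/mL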
[17] = target: T3, Serine/threonine-protein phosphatase (Candida dubliniensis (strain CD36 / CBS 7987 / NCPF 3949 / NRRLY-17841) (Yeast), UniProt B9W6M3); assay: calcineurin pathway inhibitors in yeast reporter, dose response, S. cerevisiae, CDRE-lacZ, luminescence, secondary (AID 2388); format: functional, cell-based;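 note: yeast reporter cells carrying a calcineurin-responsive lacZ construct stimulated with calcium chloride; luminescent beta-galactosidase reporter signal in whole cells rather than isolated phosphatase activity; potency for inhibition where a drop in reporter signal means calcineurin blockade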
T3 sequence (B9W6M3 whole entry): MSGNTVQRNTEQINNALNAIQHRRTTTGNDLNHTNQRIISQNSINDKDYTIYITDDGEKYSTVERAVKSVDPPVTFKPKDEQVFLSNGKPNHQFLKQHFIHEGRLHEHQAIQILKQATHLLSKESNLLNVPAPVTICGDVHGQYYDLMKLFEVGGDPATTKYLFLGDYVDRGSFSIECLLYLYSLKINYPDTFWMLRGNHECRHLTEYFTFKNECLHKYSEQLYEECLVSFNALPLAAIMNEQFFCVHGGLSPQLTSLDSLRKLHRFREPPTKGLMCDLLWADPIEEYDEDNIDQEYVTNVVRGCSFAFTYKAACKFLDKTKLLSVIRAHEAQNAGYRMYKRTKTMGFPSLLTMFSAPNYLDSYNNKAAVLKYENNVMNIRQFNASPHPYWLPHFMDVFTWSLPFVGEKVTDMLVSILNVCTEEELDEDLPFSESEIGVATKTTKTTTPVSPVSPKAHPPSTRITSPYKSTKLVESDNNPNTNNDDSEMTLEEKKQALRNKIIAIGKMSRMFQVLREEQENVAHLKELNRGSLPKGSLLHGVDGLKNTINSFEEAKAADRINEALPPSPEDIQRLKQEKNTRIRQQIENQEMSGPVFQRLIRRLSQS

[18] = system: Streptococcus; assay: Group A Streptococcus viability loss, dose response, counter-screen for streptokinase expression inhibitor project, luminescence, BacTiterGlo (AID 1915); format: functional, organism-based;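 note: potency for reduction of bacterial viability or growth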
[19] = system: Streptococcus sp. 'group A'; assay: growth inhibition of control SK(-) GAS strain, dose response, counter-screen for streptokinase expression inhibitor project, luminescence, kanamycin, BacTiterGlo, confirmation (AID 1900); format: functional, organism-based
[20] = target: ATP-dependent molecular chaperone HSP82 (Candida albicans (strain WO-1) (Yeast), UniProt C4YTQ8); assay: loss of DOC-induced GRE-beta-galactosidase reporter signal, dose response, Hsp90 inhibitor project, S. cerevisiae, luminescence (AID 2400); format: functional, cell-based;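 note: beta-galactosidase luminescence from glucocorticoid response element reporter as proxy for Hsp90 function; inhibitor potency where signal loss means Hsp90 inhibition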

Structure (SMILES): [O-][S+](c1ccccc1O)[S+]([O-])c1ccccc1O (stereo not drawn)
- IC50 [1]: 3.33 µM (active)
- IC50 [2]: 54.1 µM (inactive)
- IC50 [3]: 9.15 µM (active)
- IC50 [4]: 68 µM (active)

Structure (SMILES): NC1CCc2cc(O)c(O)cc2C1 (stereo not drawn)
- EC50 [5]: 92.5 µM (inactive)
- IC50 [2]: > 80 µM (inactive)
- EC50 [6]: 0.0131 µM (active)

Structure (SMILES): CNCCc1c[nH]c2ccc(O)cc12
- EC50 [5]: 92.4 µM (inactive)
- EC50 [6]: 1.73 µM (active)

Structure (SMILES): CN(c1ccc(C(=O)N2CCN(Cc3ccccc3)CC2)cc1)S(=O)(=O)c1ccc(Cl)cc1
- EC50 [5]: 92.4 µM (inactive)
- EC50 [6]: 2.82 µM (active)

Structure (SMILES): COCCN1C(=O)c2cc(C(=O)Nc3ccc(C)c(F)c3)ccc2C1Nc1ccc(C)c(F)c1 (stereo not drawn)
- IC50 [7]: > 80 µM (inactive)

Structure (SMILES): COC(=O)C1CCN(CCCOc2ccc(CN3CCN(c4ccc([N+](=O)[O-])cc4)CC3)cc2)CC1
- EC50 [5]: 92.6 µM (inactive)
- EC50 [6]: 0.57 µM (active)

Structure (SMILES): CC1(C)CC(=O)C(C(C2=C(O)CC(C)(C)CC2=O)c2cccs2)C(=O)C1 (stereo not drawn)
- IC50 [8]: 73 µM (active)
- IC50 [9]: 29.9 µM (inactive)
- IC50 [10]: > 64.6 µM (inactive)
- IC50 [4]: 46.3 µM (active)

Structure (SMILES): COc1ccc(N2CCN(C(=O)c3ccc4[nH]c(C)c(C)c4c3)CC2)cc1
- IC50 [7]: > 80 µM (inactive)

Structure (SMILES): CC(=O)c1ccc(NC(=O)CN2C(=O)/C(=C/C(C)=C/c3ccccc3)SC2=S)cc1
- IC50 [11]: > 94.1 µM (inactive)

Structure (SMILES): C=CCOc1ccc(C(=O)/C=C2/C(=O)Nc3ccccc32)cc1
- IC50 [7]: > 80 µM (inactive)

Structure (SMILES): COc1ccc(N2CCN(C(=O)c3cc(=O)c4cc(C)ccc4o3)CC2)cc1
- IC50 [7]: > 80 µM (inactive)

Structure (SMILES): CCc1nc(SCC(=O)NNC(=O)c2ccc(OC)cc2)c2ccccc2n1
- IC50 [12]: 1.72 µM (active)
- IC50 [13]: > 138 µM (inactive)

Structure (SMILES): Cc1cccc2sc(NNC(=O)c3cc(-c4cccs4)nc4ccccc34)nc12
- EC50 [14]: 0.507 µM (active)
- CC50 [15]: 11.5 µM (active)
- EC50 [16]: 10.7 µM (inconclusive)
- EC50 [17]: > 180 µM (inactive)
- EC50 [18]: 2.14 µM (active)
- EC50 [19]: 0.889 µM (active)
- IC50 [1]: 13.3 µM (active)
- EC50 [20]: 16.2 µM (active)
- IC50 [3]: 26.7 µM (active)
